According to US20230310388A1, “Methods and Compositions for Treating Fungal Infections” (Neoculi Pty Ltd, priority 2020, published 2023):
Converted amounts (≈) assume the structure as drawn. “And” between values parts separate entries of the source, which are not always exact repeats. Equal entries are not always repeated.

How the values were obtained:
Format in all cases: cell-based
Cryptococcus neoformans [1] = experiment: CLSI broth microdilution MIC (Example 6)
Summary of the method: (§1)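 CLSI broth microdilution in RPMI 1640, compounds serially double-diluted, inoculum about 2×10^3 cells/mL. Incubation at 35° C for 24-48 hours. MICs determined per isolate in duplicate, with a third repeat if values differed.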

Candida albicans [2] = experiment: CLSI broth microdilution MIC (Example 6)
Summary of the method: as §1

Candida parapsilosis = experiment: CLSI broth microdilution MIC (Example 3); details: Candida parapsilosis ATCC 22019
Protocol: (§2) Antifungal minimum inhibitory concentration (MIC) testing was undertaken as recommended by the CLSI. Briefly, antifungal susceptibility tests were performed for amphotericin B, robenidine (NCL812) and 5 robenidine analogs (NCL062, NCL195, NCL219, NCL259, NCL265) by standard broth microdilution method (CLSI) in RPMI 1640. Various concentrations (ranging from high to low) of the selected compounds were prepared in RPMI 1640 medium by double dilution in 96-well microtitre plates. Each well contained an inoculum of approximately 2×10^3 cells/mL. The wells without addition of drugs served as negative (no inoculum) and positive (inoculum only) growth controls. Microtitre plates were incubated at 35° C. for 24-48 hours. […] Antifungal MICs were determined for each isolate in duplicate; if the values obtained were different, the MIC test was repeated a third time. Antifungal susceptibility tests were performed for amphotericin B and NCL analogs by standard broth microdilution method (CLSI). Briefly, various concentrations (ranging from high to low) of the selected compounds were prepared in RPMI 1640 medium by double dilution in the 96-well plates. Each well contained an inoculum of approximately 2×10^3 cells/mL. The wells without addition of drugs served as a negative control. Micro plates were incubated at 35° C. for 48 hour and read spectrophotometrically at 600 nm, using a microplate reader (Multiskan-EX; Thermo Elect. Corp., USA).

Candida albicans [3] = experiment: CLSI broth microdilution MIC (Example 3)
Protocol: as §2

Malassezia pachydermatis = experiment: MIC, mSAB broth microdilution (Example 1)
From the text: There is no recommended Clinical & Laboratory Standards Institute (CLSI) standard for M. pachydermatis. In the literature there are a number of papers which have developed Minimum Inhibitory Concentration (MIC) methodology for Malassezia species isolated from both humans and animals (ie both lipophilic and non-lipophilic species). In all papers, the methodology has been altered from the original CLSI protocols in order to overcome four main problem areas involved in testing this yeast. • 1) Finding a suitable growth medium for Malassezia, especially the lipophilic species. […] When testing the azole group of anti-fungal agents, there is also the well known trailing end point problem with MIC determination. Trailing occurs when the turbidity continually decreases as the drug concentration increases but the suspension fails to become optically clear (partial inhibition of growth over an extended range of antifungal concentrations). The following method was originally developed by Eichenberg et al. (2003) (mSAB broth microdilution method). The mSAB method was devised to follow as closely as possible the CLSI guidelines whilst still allowing for the distinct biochemical and growth requirements of M. pachydermatis. Sabouraud dextrose broth with 1% Tween 80 was chosen as the assay medium as it allowed for excellent growth of the organism. Higher inoculum concentrations (1-4×10^6 CFU/ml) and increased time of incubation (48 to 72 hours) were used to enable sufficient growth of the test strains.

Cryptococcus neoformans [4] = experiment: CLSI broth microdilution MIC (Example 5)
Summary of the method: (§3)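 Broth microdilution per CLSI in RPMI 1640 with twofold compound dilutions, inoculum about 2×10^3 cells/mL. Plates incubated at 35° C for 24-48 hours. MIC determined per isolate in duplicate, with a third repeat when the two values differed.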

Candida albicans [5] = experiment: CLSI broth microdilution MIC (Example 5)
Summary of the method: as §3

[6] = Example 6 isolates, summary in words

Structure (SMILES): Cc1ccc(/C=N/Nc2cc(N/N=C/c3ccc(C)cc3)nc(N)n2)cc1 [NCL195]
- MIC (Cryptococcus neoformans [1]; Cryptococcus neoformans SA1): 2 µg/mL (≈ 5.56 µM)
- MIC (Cryptococcus neoformans [1]; Cryptococcus neoformans SA2): 2 µg/mL (≈ 5.56 µM)
- activity against all isolates (Cryptococcus neoformans [1]; [6]): active
- relative potency among tested compounds (Cryptococcus neoformans [1]; [6]): most potent activity
- MIC (Cryptococcus neoformans [1]; human clinical isolate C. neoformans serotype A/D hybrid): 2 µg/mL (≈ 5.56 µM)
- MIC (Cryptococcus neoformans [1]; human clinical isolate C. neoformans var grubii 16-90050434): 2 µg/mL (≈ 5.56 µM)
- MIC (Cryptococcus neoformans [1]; human clinical isolate C. neoformans var grubii 17-90028233): 2 µg/mL (≈ 5.56 µM)
- MIC (Cryptococcus neoformans [1]; human clinical isolate C. neoformans var grubii 17-93996464): 2 µg/mL (≈ 5.56 µM)
- MIC (Cryptococcus neoformans [1]; human clinical isolate C. neoformans var grubii 17-93996964): 2 µg/mL (≈ 5.56 µM)
- MIC (Candida albicans [2]; C. albicans SA3): 2 µg/mL (≈ 5.56 µM)
- MIC (Candida albicans [2]; Candida albicans ATCC 90028): 2 µg/mL (≈ 5.56 µM)
- MIC (Candida parapsilosis; 1st): 1 µg/mL (≈ 2.78 µM)
- MIC (Candida parapsilosis; 2nd): 2 µg/mL (≈ 5.56 µM)
- MIC (Candida albicans [3]; Candida albicans ATCC 90028, 1st): 2 µg/mL (≈ 5.56 µM)
- MIC (Candida albicans [3]; Candida albicans ATCC 90028, 2nd): 2 µg/mL (≈ 5.56 µM)
- MIC (Candida albicans [3]; Candida albicans, 1st): 2 µg/mL (≈ 5.56 µM)
- MIC (Candida albicans [3]; Candida albicans, 2nd): 2 µg/mL (≈ 5.56 µM)
- MIC (Malassezia pachydermatis; Malassezia isolate M1-017): 1 µg/mL (≈ 2.78 µM)
- MIC (Malassezia pachydermatis; Malassezia isolate M-018): 1 µg/mL (≈ 2.78 µM)
- MIC (Malassezia pachydermatis; Malassezia isolate M-020): 1 µg/mL (≈ 2.78 µM)
- MIC (Malassezia pachydermatis; Malassezia isolate M-036): 1 µg/mL (≈ 2.78 µM)
- MIC (Malassezia pachydermatis; Malassezia isolate M-037): 1 µg/mL (≈ 2.78 µM)
- MIC (Malassezia pachydermatis; Malassezia isolate M-038): 1 µg/mL (≈ 2.78 µM)
- MIC (Malassezia pachydermatis; Malassezia isolate M-040): 0.5 µg/mL and 1 µg/mL
- MIC (Malassezia pachydermatis; Malassezia isolate M-052): 1 µg/mL (≈ 2.78 µM)
- MIC (Malassezia pachydermatis; Malassezia isolate M-055): 1 µg/mL (≈ 2.78 µM)
- MIC (Malassezia pachydermatis; Malassezia isolate M-060): 1 µg/mL (≈ 2.78 µM)
- MIC (Malassezia pachydermatis; Malassezia isolate M-066): 1 µg/mL (≈ 2.78 µM)
- MIC (Malassezia pachydermatis; Malassezia isolate M-067): 0.5 µg/mL and 1 µg/mL
- MIC (Malassezia pachydermatis; Malassezia isolate M-069): 1 µg/mL (≈ 2.78 µM)
- activity against all 13 isolates of Malassezia pachydermatis (Malassezia pachydermatis; summary in words): highly active
- MIC (Cryptococcus neoformans [4]; Cryptococcus neoformans SA1): 2 µg/mL (≈ 5.56 µM)
- MIC (Cryptococcus neoformans [4]; Cryptococcus neoformans SA2): 2 µg/mL (≈ 5.56 µM)
- MIC (Candida albicans [5]; C. albicans SA3): 2 µg/mL (≈ 5.56 µM)
- MIC (Candida albicans [5]; Candida albicans ATCC 90028): 2 µg/mL (≈ 5.56 µM)
- MIC (Candida albicans [5]; clinical isolate C. albicans 12-93301752 Azole Resistant): 4 µg/mL (≈ 11.1 µM)
- MIC (Candida albicans [5]; clinical isolate C. albicans 14-90045999 Azole Resistant): >16 µg/mL
- MIC (Candida albicans [5]; clinical isolate C. albicans 15-45171061): 8 µg/mL (≈ 22.3 µM)
- MIC (Candida albicans [5]; clinical isolate C. albicans 15-91329871): 8 µg/mL (≈ 22.3 µM)
- MIC (Candida albicans [5]; clinical isolate C. albicans 16-24136919 Azole Resistant): 4 µg/mL (≈ 11.1 µM)
- MIC (Candida albicans [5]; clinical isolate C. albicans 16-46177400): 4 µg/mL (≈ 11.1 µM)
- MIC (Candida albicans [5]; clinical isolate C. albicans 16-90050810): 4 µg/mL (≈ 11.1 µM)
- MIC (Candida albicans [5]; clinical isolate C. albicans 16-90054237): 4 µg/mL (≈ 11.1 µM)
- MIC (Candida albicans [5]; clinical isolate C. albicans 18-144-00196): 4 µg/mL (≈ 11.1 µM)
- MIC (Candida albicans [5]; clinical isolate C. albicans 18-148-08188 Azole Resistant): >16 µg/mL
- activity against one or more isolates of Cryptococcus neoformans and Candida albicans (Candida albicans [5]; summary in words): highly active
